This is an account of results in patent publication US5681816A, “Method of inducing temporary paralysis of the gastrointestinal tract during medical procedure” (priority 1994, dated 1997).

Read-outs that look alike come from different tables or passages of the source.

The conditions of data set [1]: for blood pressure and pulse: first patient. As to the method: During the period of observation, vital signs (blood pressure and pulse) and symptoms were continuously recorded. The protocol was such that if the blood pressure dropped by more than 20 mm Hg systolic or diastolic or the pulse increased by more than 30 beats per minute for 2 minutes, intravenous saline was to be administered and the study terminated.

The conditions of data set [2]: in vivo; cited from earlier work.
Data set [3] concerns rat and guinea pig isolated midcolon sections. As to conditions: cited from earlier work.
A further data set deals with isolated human ileum. As to conditions: all frequencies tested; cited from earlier work.
Another data set has as its system gastroduodenal motility. As to conditions: cited from earlier work.
For data set [4] the following is noted: in vivo; cited from earlier work. The source holds these as a separate data set.
The subject of a further data set is opossum duodenum. As to conditions: cited from earlier work.
Setting [5] is: 1 mg intravenously followed by 2 mg IV over 2 hours.

Take `CC[C@H](C)[C@H](NC(=O)[C@H](CO)NC(=O)[C@H](CC(N)=O)NC(=O)[C@H](CC(C)C)NC(=O)[C@H](Cc1ccc(O)cc1)NC(=O)[C@H](CCCCN)NC(=O)[C@H](CCCCN)NC(=O)[C@@H](NC(=O)[C@H](C)NC(=O)[C@H](CCSC)NC(=O)[C@H](CCC(N)=O)NC(=O)[C@H](CCCCN)NC(=O)[C@H](CCCN=C(N)N)NC(=O)[C@H](CC(C)C)NC(=O)[C@H](CCCN=C(N)N)NC(=O)[C@@H](NC(=O)[C@H](Cc1ccc(O)cc1)NC(=O)[C@H](CC(N)=O)NC(=O)[C@H](CC(=O)O)NC(=O)[C@@H](NC(=O)[C@H](Cc1ccccc1)NC(=O)[C@@H](NC(=O)[C@H](C)NC(=O)[C@H](CC(=O)O)NC(=O)[C@H](CO)NC(=O)[C@@H](N)Cc1c[nH]cn1)C(C)C)[C@@H](C)O)[C@@H](C)O)C(C)C)C(=O)N[C@@H](CC(C)C)C(=O)N[C@@H](CC(N)=O)C(N)=O` [VIP, vasoactive intestinal peptide]: the “blood pressure and pulse” value was “slight decrease in systolic pressure and increase in pulse” in data set [1] (5 ng VIP per kg); “these effects on blood pressure and pulse were not seen” in data set [1] (higher dose level (20 ng/kg)). Moreover, the “blood pressure or pulse” value in data set [1] (second patient, any of the dosages tested) is recorded as “no significant change”; in data set [1] (third patient, any dose) it was “no significant change”. The “effect on blood pressure” value in data set [1] (summary statement) is reported as “without a significant effect”. For the same molecule, the “adverse reactions such as nausea or vomiting” value in data set [1] (three patients) is recorded as “None of the three patients studied experienced any adverse reactions”.

With `CN1[C@@H]2CC[C@H]1C[C@@H](OC(=O)C(CO)c1ccccc1)C2` (stereo partly drawn) [atropine], in data set [2], the “beneficial effects during endoscopies (patient tolerance, facilitation of endoscopy)” value is “failed to demonstrate any beneficial effects”. For the same molecule, the ascending contractions entry in data set [3] (all grades of stretch) is reported as “strongly inhibits”. Further, in data set [3], the descending relaxation result is listed as “no effect”. In addition, the “response to electrical field stimulation” value with isolated human ileum was “primary relaxation”.

As to glucagon, in the data set with gastroduodenal motility (setting [5]), the “cycle length and time between contractile activity in the duodenum” value is “significantly increased”; the mean pressure period result is recorded as “decreased”. Moreover, in the data set with gastroduodenal motility (doses as high as 2 mg), the “contractions in the antrum” value is “does not reduce contractions”. Besides, in the data set on gastroduodenal motility (in vivo), the colonoscopic evaluation result is “does not facilitate”, the gastroduodenal motility result is on record as “variable reduction” and the “minimally effective dose for reduction in gastroduodenal motility” value is 0.5 mg. In data set [4], the “dose at which nausea and vomiting can appear” value is recorded as 1 mg. For the same molecule, in the data set on opossum duodenum, the “effect on opossum duodenum” value is “stimulated relaxation”.
